EC50 and hsF data for 21 molecules are collected here from patent EP4696688A1, “BENZO-FUSED RING COMPOUND INHIBITOR, AND PREPARATION METHOD THEREFOR AND USE THEREOF” (Shanghai Hansoh Biomedical Co., Ltd., priority 2023, dated 2024).

One assay addresses T1, human CYP11B2 (Homo sapiens, UniProt P19099).
T1 construct: The main elements of an expression plasmid include ORF of human CYP11B1 or human CYP11B2; expressed in transfected cells
T1 sequence (P19099 25-503): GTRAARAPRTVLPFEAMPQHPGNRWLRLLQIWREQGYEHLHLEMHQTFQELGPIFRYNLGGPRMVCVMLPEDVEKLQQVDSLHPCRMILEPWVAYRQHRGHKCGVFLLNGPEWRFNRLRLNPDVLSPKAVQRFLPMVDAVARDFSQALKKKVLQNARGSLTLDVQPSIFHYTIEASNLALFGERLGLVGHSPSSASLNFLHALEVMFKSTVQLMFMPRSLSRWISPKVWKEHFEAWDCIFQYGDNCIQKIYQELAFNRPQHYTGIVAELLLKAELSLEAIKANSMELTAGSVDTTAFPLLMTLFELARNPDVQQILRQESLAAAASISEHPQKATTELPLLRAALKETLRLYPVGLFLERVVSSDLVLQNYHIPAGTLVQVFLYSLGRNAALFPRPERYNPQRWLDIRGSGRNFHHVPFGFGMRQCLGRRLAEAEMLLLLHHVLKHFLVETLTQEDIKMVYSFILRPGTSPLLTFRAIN
In words: G-402 cell enzyme experiment, CYP11B2 (aldosterone product, HTRF). The assay is classed as cell-based. The following applies: G-402 cells stably expressing human CYP11B2, 1 µM 11-deoxycorticosterone, 16 h. An excerpt:
(§1) G-402 cell line was used as host cells to express (by transient or stable transfection) an enzyme of the human CYP11 family. Specifically, G-402 cell lines stably expressing human CYP11B1 and human CYP11B2 were established respectively. […] Therefore, the G-402 cell line is very suitable as a host cell for the ectopic expression of an enzyme of the CYP11 family.
(§2) The G-402 cell line, originally derived from renal myoblastoma, can be obtained from ATCC (CRL-1440). The main elements of an expression plasmid include ORF of human CYP11B1 or human CYP11B2, a suitable promoter (CMV promoter), and a suitable resistance marker (neomycin). The expression plasmid was transfected into G-402 cells by standard technology, and a specific antibiotic was then given for screening. The activity of the enzyme expressed by the screened monoclonal cells was assessed by 11-deoxycorticosterone (substrate of CYP11B2) and 11-deoxycortisol (substrate of CYP11B1).
(§3) The G-402 cells expressing CYP11 plasmid, as established in the above solution, were cultured in McCoy's 5a Modified Medium (ATCC Catalog No. 30-2007) containing 10% FCS and 400 µg/ml G418 in an incubator at 37°C and 5% CO2. A cell enzyme experiment was carried out using DMEM/F12 medium containing 2.5% charcoal-treated FBS and an appropriate concentration of a substrate (1 µM 11-deoxycorticosterone or 1 µM 11-deoxycortisol). In order to detect the activity of the enzyme in the cells, the cells were plated in a 96-well plate and incubated for 16 h. The supernatant was then transferred and analyzed for the concentration of the expected product (the product of CYP11B2: aldosterone; the product of CYP11B1: cortisol). The concentrations of these products were determined by an HTRF experiment of CisBio.
(§4) In the cell enzyme experiment, the inhibitory effect of the test compound on the generated product can reflect the inhibitory effect thereof on the enzyme. The dose-dependent inhibition of the enzyme activity by the compound was calculated by plotting the concentration of the test compound (x axis) versus the measured product level (y axis). Then, the original data was fitted to a 4-parameter sigmoidal function (Morgan-Mercer-Flodin, MMF model) by least square method: y = (AB + Cx^D) / (B + x^D) in which A is the maximum y value, B is the EC50 determined by XLFit, C is the minimum y value, and D is the slope value. The maximum value A corresponds to the amount of the product detected without an inhibitor, and C corresponds to the amount of the product detected in the G402 cells expressing an empty plasmid.
(§5) The EC50 value of the compound of the present invention was determined by the above G-402 experiment system. The activity of the CYP11B2 enzyme was determined under the conditions of 1 µM 11-deoxycorticosterone and a variable amount of the inhibitor, and the activity of the CYP11B1 enzyme was determined under the conditions of 1 µM 11-deoxycortisol and a variable amount of the inhibitor.

Another assay has as its target T2, human CYP11B1 (Homo sapiens, UniProt P15538).
T2 construct: The main elements of an expression plasmid include ORF of human CYP11B1 or human CYP11B2; expressed in transfected cells
T2 sequence (P15538 25-503): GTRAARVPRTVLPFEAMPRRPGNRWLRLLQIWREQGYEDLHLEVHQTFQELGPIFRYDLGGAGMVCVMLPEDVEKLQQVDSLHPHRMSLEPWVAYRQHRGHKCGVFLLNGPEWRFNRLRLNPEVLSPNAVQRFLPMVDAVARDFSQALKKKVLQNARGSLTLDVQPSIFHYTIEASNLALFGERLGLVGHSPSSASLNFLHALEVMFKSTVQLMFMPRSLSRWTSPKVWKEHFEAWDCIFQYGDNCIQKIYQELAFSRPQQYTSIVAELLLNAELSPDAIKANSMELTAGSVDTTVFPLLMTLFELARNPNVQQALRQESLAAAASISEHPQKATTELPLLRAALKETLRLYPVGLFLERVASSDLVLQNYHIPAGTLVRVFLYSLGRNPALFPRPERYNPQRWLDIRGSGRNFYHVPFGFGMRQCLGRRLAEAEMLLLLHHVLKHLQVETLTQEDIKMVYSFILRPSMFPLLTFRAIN
In words: G-402 cell enzyme experiment, CYP11B1 (cortisol product, HTRF), selectivity versus CYP11B2. It is filed as cell-based. The following applies: human selective factor: ratio of CYP11B1 EC50 to CYP11B2 EC50; G-402 cells.
Source text: as §1, §2, §3, §4, §5
Background: Time-resolved FRET reads energy transfer from a long-lived donor to a nearby acceptor.

Where only a bound is given, the exact number is not on record here.

Usually EC50 stands for the midpoint of the concentration-response curve. Lower therefore signals a more potent agent. For the molecule `CCS(=O)(=O)N1CC(Oc2cncc(-c3ccc4nc(OC)ccc4c3)c2)C1` [Example 22, 6-(5-((1-(ethylsulfonyl)azetidin-3-yl)oxy)pyridin-3-yl)-2-methoxyquinoline], the response on human CYP11B2 was half-maximal at 5 nM (EC50).
`COc1ccc2cc(-c3cncc4c3CCCC4NC(C)=O)ccc2n1` (stereo not drawn) [Example 24-A] had an EC50 at human CYP11B2 of 16 nM.
Turning to `CCC(=O)N1CC2(C1)CN(c1cncc(-c3ccc4nc(OC)ccc4c3)c1)C2` [Example 36, 1-(6-(5-(2-methoxyquinolin-6-yl)pyridin-3-yl)-2,6-diazaspiro[3.3]heptan-2-yl)propan-1-one], the midpoint of the response at human CYP11B2, the EC50, lay at 26 nM. The hsF on human CYP11B1 is 2766x.
As to `CCC(=O)NC1CCCc2c(-c3cc(F)c4c(c3)CCc3nncn3-4)cncc21` (stereo not drawn) [Example 37, N-(4-(9-fluoro-4,5-dihydro-[1,2,4]triazolo[4,3-a]quinolin-7-yl)-5,6,7,8-tetrahydroisoquinolin-8-yl)propanamide], the EC50 at human CYP11B2 is 35 nM.
For the molecule `COc1ccc2cc(-c3cncc(NC4CN(C(=O)c5cnn(C)c5)C4)c3)ccc2n1` [Example 40, (3-((5-(2-methoxyquinolin-6-yl)pyridin-3-yl)amino)azetidin-1-yl)(1-methyl-1H-pyrazol-4-yl)methanone], a half-maximal effect at human CYP11B2 (EC50) was put at 13 nM. Moreover, the hsF at human CYP11B1 is 2541x.
The like results for `COc1ccc2cc(-c3cncc(N4CC5(CN(C(=O)c6cnn(C7CC7)c6)C5)C4)c3)ccc2n1` [Example 43, (1-cyclopropyl-1H-pyrazol-4-yl)(6-(5-(2-methoxyquinolin-6-yl)pyridin-3-yl)-2,6-diazaspiro[3.3]heptan-2-yl)methanone] were, in that order, 50 nM and over 4023x.
The molecule `COc1ccc2cc(-c3cncc(N4CCN(C(=O)c5cnn(C)c5)CC4)c3)ccc2n1` [Example 50, (4-(5-(2-methoxyquinolin-6-yl)pyridin-3-yl)piperazin-1-yl)(1-methyl-1H-pyrazol-4-yl)methanone] came in with an EC50 at human CYP11B2 of 8 nM.
As to `COc1ccc2cc(-c3cncc(N4CC5(CCN(C(=O)c6cnn(C)c6)C5)C4)c3)ccc2n1` [Example 51, (2-(5-(2-methoxyquinolin-6-yl)pyridin-3-yl)-2,6-diazaspiro[3.4]octane-6-yl)(1-methyl-1H-pyrazol-4-yl)methanone], the response on human CYP11B2 was half-maximal at 24 nM (EC50). Besides, the hsF at human CYP11B1 is 157x.
In the same order, the values of `COc1ccc2cc(-c3cncc(NC4CN(C(=O)c5cnn(C6CC6)c5)C4)c3)ccc2n1` [Example 54, (1-cyclopropyl-1H-pyrazol-4-yl)(3-((5-(2-methoxyquinolin-6-yl)pyridin-3-yl)amino)azetidin-1-yl)methanone] are 21 nM and 404x.
As for `COc1ccc2cc(-c3cncc(NC4CCN(C(=O)c5cnn(C)c5)CC4)c3)ccc2n1` [Example 56, (4-((5-(2-methoxyquinolin-6-yl)pyridin-3-yl)amino)piperidin-1-yl)(1-methyl-1H-pyrazol-4-yl)methanone], the EC50 on human CYP11B2 stood at 7 nM. Moreover, the hsF on human CYP11B1 amounted to 159x.
Regarding `COc1ccc2cc(-c3cncc(N4CC5(CCN(C(=O)c6cnn(C)c6)CC5)C4)c3)ccc2n1` [Example 62, (2-(5-(2-methoxyquinolin-6-yl)pyridin-3-yl)-2,7-diazaspiro[3.5]nonan-7-yl)(1-methyl-1H-pyrazol-4-yl)methanone], the EC50 on human CYP11B2 was determined as 14 nM. The hsF on human CYP11B1 worked out at 174x.
In the same order, the values of `COc1ccc2cc(-c3cncc(N4CC5(CC(NC(=O)c6cnn(C)c6)C5)C4)c3)ccc2n1` [Example 63, N-(2-(5-(2-methoxyquinolin-6-yl)pyridin-3-yl)-2-azaspiro[3.3]heptan-6-yl)-1-methyl-1H-pyrazole-4-carboxamide] are 6 nM and 1912x.
On to `CCC(=O)NC1CC2(C1)CN(c1cncc(-c3ccc4nc(OC)ccc4c3)c1)C2` [Example 64, N-(2-(5-(2-methoxyquinolin-6-yl)pyridin-3-yl)-2-azaspiro[3.3]heptan-6-yl)propanamide], for which the EC50 at human CYP11B2 came out at 32 nM. That is a double-digit nanomolar value.
As to `CCC(=O)N[C@@H]1CCCc2c(-c3ccc4c(c3)sc(=O)n4C)cncc21` [Example 65, (R)-N-(4-(3-methyl-2-oxo-2,3-dihydrobenzo[d]thiazol-6-yl)-5,6,7,8-tetrahydroisoquinolin-8-yl)propanamide], at human CYP11B2, the EC50 was 89 nM.
With `CCC(=O)Nc1cccc2c(-c3ccc4nc(OC)ccc4c3)cncc12` [Example 68, N-(4-(2-methoxyquinolin-6-yl)isoquinolin-8-yl)propanamide], on human CYP11B2, the EC50 amounted to 33 nM.
On to `Cn1c(=O)ccc2cc(-c3cncc(C4=CCN(S(=O)(=O)C5CC5)CC4)c3)ccc21` [Example 70, 6-(1'-(cyclopropylsulfonyl)-1',2',3',6'-tetrahydro-[3,4'-bipyridin]-5-yl)-1-methylquinolin-2(1H)-one], for which the EC50 at human CYP11B2 was determined as 55 nM. The hsF on human CYP11B1 was found to be 252x.
Turning to `COc1ccc2cc(-c3cncc(N4CCC(NC(=O)c5cnn(C)c5)CC4)c3)ccc2n1` [Example 71, N-(1-(5-(2-methoxyquinolin-6-yl)pyridin-3-yl)piperidin-4-yl)-1-methyl-1H-pyrazole-4-carboxamide], the midpoint of the response at human CYP11B2, the EC50, lay at 4 nM.
Still for that read-out and setting: in the case of `[2H]C([2H])([2H])N(C(=O)c1cnn(C)c1)C1CCN(c2cncc(-c3ccc4nc(OC)ccc4c3)c2)CC1` [Example 72, N-(1-(5-(2-methoxyquinolin-6-yl)pyridin-3-yl)piperidin-4-yl)-1-methyl-N-(methyl-d3)-1H-pyrazole-4-carboxamide] it was 10 nM; in that of `COCC(=O)N1CC2(C1)CN(c1cncc(-c3ccc4nc(OC)ccc4c3)c1)C2` [Example 80, 2-methoxy-1-(6-(5-(2-methoxyquinolin-6-yl)pyridin-3-yl)-2,6-diazaspiro[3.3]heptan-2-yl)ethan-1-one], 17 nM.
On human CYP11B2, `CN(c1cncc(-c2ccc3c(c2)sc(=O)n3C)c1)C1CN(C(=O)c2cnn(C)c2)C1` [Example 89, 3-methyl-6-(5-(methyl(1-(1-methyl-1H-pyrazole-4-carbonyl)azetidin-3-yl)amino)pyridin-3-yl)benzo[d]thiazol-2(3H)-one] showed an EC50 of 9 nM.
On the same count and under the same terms, in the case of `CCS(=O)(=O)N1CC(Oc2cncc(-c3ccc4c(c3)sc(=O)n4C)c2)C1` [Example 90, 6-(5-((1-(ethylsulfonyl)azetidin-3-yl)oxy)pyridin-3-yl)-3-methylbenzo[d]thiazol-2(3H)-one] it was 23 nM.
